The values that follow come from patent US20160228444A1, “NUCLEOSIDE ANALOGS AND USES THEREOF” (Ramot at Tel-Aviv University Ltd., priority 2015, published 2016).

Assay [1] concerns MDA-231 cells. In words: Median-effect drug interaction, Hoechst viability, 72 h. To be noted: for IC50: Homo sapiens. In kind it is cell-based, human. As for the experimental part:
(§1) The ratios of the drug combination were based on the ratio of their IC50 of each drug alone. Cell viability was determined by MTT assay, as described hereinabove. The drugs were added to the cells and incubated for 72 h.
(§2) Drug interaction in adherent cells was evaluated as above except that the viability was determined by Hoechst assay.

In assay [2] the test system is T47D cells. Described as above. In kind it is cell-based, human. The conditions noted are these: for IC50: Homo sapiens. On the procedure:
as §1, §2

Assay [3] has as its system U251 cells. In words: Hoechst viability assay 72 h / median-effect combination study. The conditions noted are these: Homo sapiens, U-251, 72 h, read-out: IC50 value for viability in U251 cells after 72 hours.
Description: Hoechst assay: 22RV-1, MCF-7, MCF-7DX, 4T1, U251, and T47D cells (3×10^3 cells/well) and NCI-N87 (8×10^3 cells/well) were seeded in tissue culture in growth medium for 24 h in 96-well plates (in triplicate) and then exposed to different concentrations (titration) of the tested drug for 72 h at 37° C. The plates were then rinsed with PBS and fixed with 100 ml of 70% ethanol for 30 min. […] The fluorescence was measured (excitation at 390 nm and emission at 460 nm) with a Synergy III Fluorometer-Elisa reader (BioTek Instruments, Inc. Germany).
The Median Effect Analysis (MEA) for a constant combination ratio was used for drugs interaction and the combination index (CI) determination.
The average values of three independent experiments were calculated and analyzed with CalcuSyn software.

Read-outs that look alike come from different tables or passages of the source.

For the molecule `CCCC(CCC)C(=O)O` [Valproic acid, valproic acid], the IC50 (as a rule, the concentration that gives 50% inhibition) in assay [1] (MDA-MB-231, MDA-231, in combination with paclitaxel, read-out: com IC50) worked out at 1600 ± 10 µM; in assay [1] (MDA-MB-231, MDA-231, single agent, Table 3, read-out: IC50), 3900 ± 200 µM; in assay [2] (in combination with paclitaxel, read-out: com IC50) it was 1800 ± 100 µM; in assay [2] (single agent, Table 3, read-out: IC50), 4400 ± 300 µM; in assay [3] it was 3000 µM. In addition, the results for the “CI (combination index with paclitaxel)” value in assay [1] (MDA-231) and in assay [2] were 0.8 and 1.1, respectively.

For `C/C=C1\NC(=O)[C@H]2CSSCC/C=C/[C@H](CC(=O)N[C@H](C(C)C)C(=O)N2)OC(=O)[C@H](C(C)C)NC1=O` [romidepsin], the IC50 in assay [3] was 0.001 µM.
